Experimental data reported in PMC8596838, “Xylose‐Configured Cyclophellitols as Selective Inhibitors for Glucocerebrosidase” (Chembiochem, 2021).

How the values were obtained:
[1] = biological target: T1, rhGBA (recombinant human GBA, Imiglucerase) (Homo sapiens, UniProt P04062, R534H); assay: Fluorogenic substrate (4-MU-β-D-glucoside) enzymatic assay, rhGBA; assay type: biochemical; conditions: for IC50: enzymatic assay performed for 3 h, n=3, read-out: In vitro apparent IC50 rhGBA, 3 h
T1 construct: purchased Sanofi Genzyme (Cambridge, MA, USA)
T1 sequence (P04062 40-536 R534H): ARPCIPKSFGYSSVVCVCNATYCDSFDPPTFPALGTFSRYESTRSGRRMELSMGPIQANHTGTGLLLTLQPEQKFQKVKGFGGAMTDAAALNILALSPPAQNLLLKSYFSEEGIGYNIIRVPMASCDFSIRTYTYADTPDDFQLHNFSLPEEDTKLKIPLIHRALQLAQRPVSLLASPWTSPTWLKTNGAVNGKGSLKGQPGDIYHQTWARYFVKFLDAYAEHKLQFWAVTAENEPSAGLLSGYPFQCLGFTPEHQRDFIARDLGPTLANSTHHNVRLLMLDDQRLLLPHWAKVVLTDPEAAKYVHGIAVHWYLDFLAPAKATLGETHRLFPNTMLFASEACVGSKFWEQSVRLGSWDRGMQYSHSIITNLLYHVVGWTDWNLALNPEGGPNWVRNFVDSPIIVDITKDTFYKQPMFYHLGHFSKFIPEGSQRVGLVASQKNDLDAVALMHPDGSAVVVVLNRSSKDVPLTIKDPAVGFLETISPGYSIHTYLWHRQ

GBA = GBA (Danio rerio, UniProt E7EZM1); assay: In vivo inhibition in zebrafish larvae, read out by cABPP with ABP 10, GBA; design: species or system zebrafish (Danio rerio); conditions: larvae exposed to 5 dpf, inhibitor in the medium, cABPP quantification
Text: (§1) We further investigated the affinity of 1 and 2 towards β‐D‐glucosidases in living animals using zebrafish (Danio rerio) embryos, which express both GBA and GBA2. Following exposure for 5 days, fish larvae were sacrificed and lysed, and cABPP with ABP 10 was used to detect residual active β‐D‐glucosidase molecules in the lysates and for IC50 determination. […] Aziridine compound 2 is also selective against GBA over GBA2, albeit with a narrower selectivity window (Figure 6A–C). […]
(§2) Figure 6 In vivo inhibitory effect of β‐D‐xylo‐configured compounds on β‐glucosidases in zebrafish (Danio rerio) larvae. […] Fluorescently labeled proteins were visualized after SDS‐PAGE, only GBA and GBA2 were assessed in zebrafish larvae model. (B) Apparent IC50 values towards β‐glucosidases (GBA and GBA2) were determined by the fluorescence quantification based on cABPP results. […] (D) GlcSph levels in zebrafish larvae were determined as described in experiment section, n=2 replicates.
ABP labeling procedure: Glycosidases were labeled with excess fluorescent ABPs at optimum conditions. […] ABP‐emitted fluorescence was quantified using ImageQuant software (GE Healthcare, Chicago, IL, USA) and curve‐fitted using Prism 8.0 (GraphPad Software). After fluorescence scanning, SDS‐PAGE gels were stained for total protein with Coomassie G250 and scanned on a ChemiDoc MP imager (Bio‐Rad, Hercules, CA, USA).[25] […]

[2] = system: glucosylsphingosine (GlcSph); assay: GlcSph levels in inhibitor treated zebrafish larvae (LC-MS); assay type: in vivo, zebrafish (Danio rerio); conditions: treated 103 hours from 8 hpf, n=2
Text: as §1, §2
Sphingolipid extraction and analysis by mass spectrometry in inhibitor treated zebrafish larvae: Zebrafish embryos at 8 hours post fertilization (hpf) were seeded in 96‐well plates (1 fish embryo/ well, 200 μL egg water/well) and treated with corresponding inhibitors in different concentration for 103 hours at 28.5 °C. […] Lipids were extracted and measured according to methods described previously.[48] […]

Chain of GBA (E7EZM1 entry or part of it): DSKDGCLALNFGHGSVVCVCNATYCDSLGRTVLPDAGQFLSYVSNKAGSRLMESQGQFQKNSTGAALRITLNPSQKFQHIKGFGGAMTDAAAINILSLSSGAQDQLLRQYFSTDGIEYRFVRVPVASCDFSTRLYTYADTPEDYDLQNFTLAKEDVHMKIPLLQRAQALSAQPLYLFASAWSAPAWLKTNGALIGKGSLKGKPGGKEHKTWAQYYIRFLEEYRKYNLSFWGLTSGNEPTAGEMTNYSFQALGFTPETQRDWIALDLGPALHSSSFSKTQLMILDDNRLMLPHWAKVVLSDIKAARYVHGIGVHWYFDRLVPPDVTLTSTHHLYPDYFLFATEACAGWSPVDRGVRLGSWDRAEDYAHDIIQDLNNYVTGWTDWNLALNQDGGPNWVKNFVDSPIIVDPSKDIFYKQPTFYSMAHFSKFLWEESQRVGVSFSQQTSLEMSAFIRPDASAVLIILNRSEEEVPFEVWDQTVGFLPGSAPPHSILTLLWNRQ

| SMILES | IC50 [1] [nM] | IC50 (GBA) [nM] | GlcSph levels in zebrafish embryos [2] | increase in inhibitory activity towards GBA of aziridines relative to epoxide analogues ([1]; in vitro 3 h) |
| --- | --- | --- | --- | --- |
| O[C@@H]1[C@@H](O)[C@H](O)C[C@H]2O[C@@H]12 [compound 1, xylo‐cyclophellitol] | 450 ± 20 | 3010 | increased levels of GlcSph | – |
| O[C@@H]1[C@@H](O)[C@H](O)C[C@H]2N[C@@H]12 [compound 2, β‐D‐xylo‐Cyclophellitol aziridine] | 240 ± 30 | 6990 | increased levels of GlcSph | less than two‐fold increase |
